# In the supplement of paper PMC10307832:
# Assays:
# Test in all cases: relative viability (nuclei count vs DMSO), 5 days (fraction); higher = more cells survive
# [1] = compound: CC(C)C[C@H](NC(=O)[C@H](Cc1ccccc1)NC(=O)c1cnccn1)B(O)O [Bortezomib] + Cc1nc(NC(=O)N2CCC[C@H]2C(N)=O)sc1-c1ccnc(C(C)(C)C(F)(F)F)c1 [Alpelisib] (partner 2 µM)
# Method in brief: (§1)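 Medians of duplicate plates are given as relative viability. That measure is the nuclei count in treated wells divided by the count in vehicle wells. Counts were taken on 4× images of lung cancer cell lines in 1536-well plates, 5 days after pin-tool dosing the day after seeding with one drug alone or a fixed anchor-drug dose plus five library-drug doses (not always all listed) in √10 steps.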
# [2] = compound: CC(C)C[C@H](NC(=O)[C@H](Cc1ccccc1)NC(=O)c1cnccn1)B(O)O [Bortezomib] + O=C(c1cc(Cc2n[nH]c(=O)c3ccccc23)ccc1F)N1CCN(C(=O)C2CC2)CC1 [Olaparib] (partner 8 µM)
# Method in brief: as §1
# [3] = compound: CC(C)C[C@H](NC(=O)[C@H](Cc1ccccc1)NC(=O)c1cnccn1)B(O)O [Bortezomib] + Cc1cc(Nc2cc(N3CCN(C)CC3)nc(Sc3ccc(NC(=O)C4CC4)cc3)n2)n[nH]1 [Tozasertib] (partner 0.1 µM)
# Method in brief: as §1
# [4] = compound: COC1=CC(c2cc3ccccc3[nH]2)=N/C1=C\c1[nH]c(C)cc1C [Obatoclax] + CCNC(=O)c1noc(-c2cc(C(C)C)c(O)cc2O)c1-c1ccc(CN2CCOCC2)cc1 [Luminespib] (partner 0.01 µM)
# Method in brief: as §1
Cell Line,relative viability ([1]; first compound 0.0002 µM),relative viability ([1]; first compound 0.000632 µM),relative viability ([1]; first compound 0.002 µM),relative viability ([1]; first compound 0.006325 µM),relative viability ([1]; first compound 0.02 µM),relative viability ([2]; first compound 0.0002 µM),relative viability ([2]; first compound 0.000632 µM),relative viability ([2]; first compound 0.002 µM),relative viability ([2]; first compound 0.006325 µM),relative viability ([2]; first compound 0.02 µM),relative viability ([3]; first compound 0.0002 µM),relative viability ([3]; first compound 0.000632 µM),relative viability ([3]; first compound 0.002 µM),relative viability ([3]; first compound 0.006325 µM),relative viability ([3]; first compound 0.02 µM),relative viability ([4]; first compound 0.01 µM),relative viability ([4]; first compound 0.03162 µM),relative viability ([4]; first compound 0.1 µM),relative viability ([4]; first compound 0.3162 µM),relative viability ([4]; first compound 1 µM)
NCI-H2228,0.796,0.748,0.411,0.111,0.102,0.541,0.615,0.289,0.0866,0.0966,0.232,0.231,0.251,0.0818,0.102,0.164,0.109,0.138,0.113,0.186
NCI-H1944,0.807,0.79,0.764,0.84,0.154,0.419,0.392,0.414,0.331,0.142,0.234,0.248,0.247,0.195,0.136,0.794,0.66,0.735,0.75,0.636
COR-L 105,0.911,1.04,0.909,0.237,0.227,0.692,0.683,0.72,0.419,0.356,0.357,0.345,0.216,0.254,0.19,0.97,0.908,0.724,1.75,0.236
LU99A,0.424,–,0.466,0.224,0.141,0.238,0.26,0.242,0.154,0.122,0.279,0.29,0.247,0.252,0.17,0.268,0.243,0.259,0.229,0.246
H3255,0.688,0.696,0.479,0.156,0.163,0.579,0.545,0.36,0.233,0.237,0.783,0.589,0.564,0.184,0.243,0.903,0.823,0.899,0.88,0.806
NCI-H1734,0.706,0.732,0.612,0.154,0.113,0.555,0.661,0.443,0.115,0.0968,0.263,0.295,0.276,0.133,0.093,0.201,0.188,0.2,0.187,0.18
NCI-H1915,1.05,1.03,0.892,0.81,0.0434,0.251,0.257,0.244,0.056,0.0357,0.428,0.448,0.416,0.0502,0.0519,0.725,0.664,0.749,0.713,0.796
NCI-H2009,1.13,1.19,1.14,0.543,0.0447,0.654,0.661,0.693,0.222,0.049,0.725,0.807,0.704,0.229,0.0821,0.928,0.981,0.993,0.713,0.246
NCI-H1651,1,0.87,0.748,0.114,0.0938,0.181,0.194,0.144,0.0868,0.0799,0.694,0.72,0.619,0.099,0.101,0.866,0.792,1.16,0.811,0.516
HOP-62,0.938,1.08,0.33,0.0928,0.067,0.392,0.448,0.165,0.0947,0.0397,0.354,0.391,0.292,0.0719,0.0538,0.854,0.815,0.846,0.88,0.926
CAL-12T,1.26,1.05,1.11,0.175,0.115,0.625,0.675,0.62,0.282,0.199,0.322,0.285,0.358,0.193,0.106,0.493,0.292,0.273,0.122,0.118
LCLC-103H,0.955,0.893,1.02,1.07,0.166,0.747,0.778,0.671,0.355,0.202,–,0.485,0.251,0.147,0.128,0.948,0.875,1.02,0.911,0.969
NCI-H3122,0.796,0.718,0.798,0.59,0.17,0.557,0.621,0.604,0.243,0.0898,0.388,0.43,0.266,0.153,0.088,0.0984,0.0854,0.0999,0.0772,0.0894
NCI-H1395,1.15,1.06,0.387,0.411,0.393,0.474,0.45,0.361,0.336,0.328,0.793,0.692,0.576,0.288,0.274,0.634,0.491,0.701,0.523,0.421
PC-14,0.977,0.909,1.01,0.325,0.0573,0.239,0.282,0.323,0.0333,0.0494,0.415,0.612,0.562,0.113,0.0502,0.132,0.138,0.148,0.13,0.146
BEN,0.925,1.09,0.72,0.614,0.154,1.15,0.921,0.845,0.742,0.218,0.496,0.554,0.449,0.511,0.362,0.507,0.243,–,0.26,0.291
